Laboratory results published in patent US8741899B2, “(4-chloro-2-fluoro-N-(2-fluorophenyl)-5-[(8aR)-hexahydropyrrolo-[1,2-a]pyrazin-2(1H)-ylcarbonyl]-benzenesulfonamide, and pharmaceutically acceptable salts thereof” (AbbVie Inc., priority 2009, dated 2014).

What was measured:
Human Cav3.2 Channels = target: T1, Human Cav3.2 Channels (Homo sapiens, UniProt O95180); assay: Electrophysiologic (whole-cell patch-clamp) assessment of calcium channel activity in HEK293 cells stably expressing hCav3.2; assay type: cell-based; settings: −77 mV, geometric mean, read-out: Human Cav3.2 −77 mV IC50 (μM) GeoMean
T1 construct: expressed in transfected cells
T1 sequence (O95180 whole entry): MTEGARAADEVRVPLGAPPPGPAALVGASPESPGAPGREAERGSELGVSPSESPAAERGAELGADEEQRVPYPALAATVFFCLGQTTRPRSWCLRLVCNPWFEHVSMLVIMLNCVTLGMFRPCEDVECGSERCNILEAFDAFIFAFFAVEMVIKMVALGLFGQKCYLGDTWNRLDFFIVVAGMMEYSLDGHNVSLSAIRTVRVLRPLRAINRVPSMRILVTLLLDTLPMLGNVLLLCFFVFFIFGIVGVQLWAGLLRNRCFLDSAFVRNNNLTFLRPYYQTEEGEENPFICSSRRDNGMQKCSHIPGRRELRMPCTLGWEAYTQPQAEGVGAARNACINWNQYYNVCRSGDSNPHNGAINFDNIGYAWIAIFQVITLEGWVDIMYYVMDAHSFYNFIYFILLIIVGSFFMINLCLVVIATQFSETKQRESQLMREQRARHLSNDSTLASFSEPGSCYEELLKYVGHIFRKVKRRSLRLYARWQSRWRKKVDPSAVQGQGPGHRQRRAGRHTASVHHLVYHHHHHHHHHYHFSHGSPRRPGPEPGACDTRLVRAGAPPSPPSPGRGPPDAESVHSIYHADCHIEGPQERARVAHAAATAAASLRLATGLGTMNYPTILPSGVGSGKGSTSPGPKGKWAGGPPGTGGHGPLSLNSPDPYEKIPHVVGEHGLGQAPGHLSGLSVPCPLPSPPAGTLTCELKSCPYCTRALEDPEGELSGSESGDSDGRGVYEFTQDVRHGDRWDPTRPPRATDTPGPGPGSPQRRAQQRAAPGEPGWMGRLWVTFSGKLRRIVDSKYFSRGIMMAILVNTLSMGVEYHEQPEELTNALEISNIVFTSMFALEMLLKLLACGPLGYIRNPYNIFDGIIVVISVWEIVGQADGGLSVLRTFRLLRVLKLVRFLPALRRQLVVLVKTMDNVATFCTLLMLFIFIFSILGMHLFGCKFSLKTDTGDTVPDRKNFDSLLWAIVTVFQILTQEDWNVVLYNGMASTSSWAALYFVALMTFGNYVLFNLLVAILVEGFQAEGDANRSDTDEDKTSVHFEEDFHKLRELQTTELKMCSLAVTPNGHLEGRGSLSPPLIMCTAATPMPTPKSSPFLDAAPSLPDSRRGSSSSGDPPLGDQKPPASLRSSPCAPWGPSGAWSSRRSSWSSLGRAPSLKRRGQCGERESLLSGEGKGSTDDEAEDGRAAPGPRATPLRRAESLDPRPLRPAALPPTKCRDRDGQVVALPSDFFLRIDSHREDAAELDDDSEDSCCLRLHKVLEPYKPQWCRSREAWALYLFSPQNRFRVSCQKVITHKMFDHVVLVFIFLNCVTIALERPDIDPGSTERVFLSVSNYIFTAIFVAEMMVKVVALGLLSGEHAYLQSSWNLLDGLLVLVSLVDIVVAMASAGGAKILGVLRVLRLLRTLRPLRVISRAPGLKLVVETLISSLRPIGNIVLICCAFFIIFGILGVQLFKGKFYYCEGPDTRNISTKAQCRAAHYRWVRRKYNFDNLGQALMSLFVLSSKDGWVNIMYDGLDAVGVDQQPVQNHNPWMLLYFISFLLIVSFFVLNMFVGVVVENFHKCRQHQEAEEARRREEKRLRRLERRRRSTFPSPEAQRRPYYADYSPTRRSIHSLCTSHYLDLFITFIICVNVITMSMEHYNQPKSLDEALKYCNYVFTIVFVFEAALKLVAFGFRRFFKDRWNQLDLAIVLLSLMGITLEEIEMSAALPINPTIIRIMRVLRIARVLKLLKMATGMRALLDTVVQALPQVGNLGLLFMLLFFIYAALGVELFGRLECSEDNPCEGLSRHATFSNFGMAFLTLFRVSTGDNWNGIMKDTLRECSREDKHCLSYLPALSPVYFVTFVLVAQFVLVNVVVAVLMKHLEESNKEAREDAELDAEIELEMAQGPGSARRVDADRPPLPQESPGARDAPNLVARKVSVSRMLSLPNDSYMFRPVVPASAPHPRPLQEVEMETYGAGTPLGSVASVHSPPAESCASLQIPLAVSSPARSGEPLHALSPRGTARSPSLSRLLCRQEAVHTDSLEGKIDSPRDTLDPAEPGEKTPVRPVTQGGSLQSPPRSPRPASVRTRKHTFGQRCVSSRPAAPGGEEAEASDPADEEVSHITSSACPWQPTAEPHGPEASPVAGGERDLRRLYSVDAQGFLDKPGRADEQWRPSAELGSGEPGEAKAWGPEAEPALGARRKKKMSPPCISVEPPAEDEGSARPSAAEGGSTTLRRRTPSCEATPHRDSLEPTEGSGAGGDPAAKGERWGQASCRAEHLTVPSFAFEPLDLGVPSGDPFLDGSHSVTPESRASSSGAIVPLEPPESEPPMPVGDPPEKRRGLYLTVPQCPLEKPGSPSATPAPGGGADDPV
Outline: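 HEK293 cells stably expressing hCav3.2, whole-cell patch clamp; external 5 mM CaCl2 with CsCl/TEA-Cl, pH 7.2; Cs-based internal with 4 mM Mg2ATP. Two-pulse protocol: 8 s prepulse at −100 mV or ~−75 mV, then test pulse to −30 mV. Cumulative antagonist additions, 5 min each; responses normalized to DMSO vehicle.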

Sprague Dawley rats = assay: Capsaicin induced secondary mechanical hyperalgesia model; assay type: in vivo; settings: rat, 60 minutes before testing, secondary mechanical hyperalgesia 180 minutes after capsaicin, von Frey filaments
Method: (ii) In Vivo Data—Capsaicin Induced Secondary Mechanical Hyperalgesia Model:
Sprague Dawley rats were briefly restrained, and capsaicin was administered at 10 μg in 10 μL of vehicle by intraplantar injection into the center of the right hind paw. Secondary mechanical hyperalgesia (SMH) was measured at the heel away from the site of injection 180 minutes following capsaicin exposure. Compounds and gabapentin (positive control), were administered p.o. 60 minutes before testing (2 hours after capsaicin) or i.p. 30 minutes before testing (2.5 hours after capsaicin). SMH was measured using calibrated von Frey filaments (Stoelting, Woodale, Ill.). Following the 1 hour habituation in the testing room, rats were moved to individual plexiglass chambers that sit on top of a wire mesh to allow for access for stimulation of the plantar surface of the hind paws. Rats were allowed to acclimate to the new chambers for 15 minutes before the onset of testing. The paw withdrawal threshold was determined by increasing and decreasing stimulus intensity (force: g) and calculated using Dixon's up-down method (Chaplan, S. R.; Bach, F. W.; Pogrel, J. W.; Chung, J. M.; Yaksh, T. L.; Quantitative assessment of tactile allodynia in the rat paw. J. Neuroscience Methods 1994, 53(1), 55-63). The filaments (maximum force of 15.0 g) were held in place for 8 seconds or until there was a withdrawal response from the mechanical stimulation.

IC50 (Human Cav3.2 Channels) [µM] | Structure (SMILES) | Inhibition to Pain Response, % inhibition @ 30 mg/kg p.o. (Sprague Dawley rats) [%]
10.6 | O=C(c1cccc(S(=O)(=O)Nc2ccccc2F)c1)N1CCN2CCC[C@@H]2C1 [Example 2, N-(2-fluorophenyl)-3-[(8aR)-hexahydropyrrolo[1,2-a]pyrazin-2(1H)-ylcarbonyl]benzenesulfonamide] | 58
5.9 | O=C(c1cccc(S(=O)(=O)Nc2cccc(F)c2)c1)N1CCN2CCC[C@H]2C1 [Example 3, N-(3-fluorophenyl)-3-[(8aS)-hexahydropyrrolo[1,2-a]pyrazin-2(1H)-ylcarbonyl]benzenesulfonamide] | 44
5.6 | O=C(c1cccc(S(=O)(=O)Nc2c(F)cccc2F)c1)N1CCN2CCC[C@@H]2C1 [Example 13, N-(2,6-difluorophenyl)-3-[(8aR)-hexahydropyrrolo[1,2-a]pyrazin-2(1H)-ylcarbonyl]benzenesulfonamide] | 37
6 | O=C(c1cc(S(=O)(=O)Nc2ccccc2F)c(F)cc1Cl)N1CCN2CCC[C@@H]2C1 [Example 20, 4-chloro-2-fluoro-N-(2-fluorophenyl)-5-[(8aR)-hexahydropyrrolo[1,2-a]pyrazin-2(1H)-ylcarbonyl]benzenesulfonamide] | 43
1.1 | O=C(c1cccc(S(=O)(=O)Nc2ccc(C(F)(F)F)cc2)c1)N1CCN2CCCCC2C1 (stereo not drawn) [Example 37, 3-(octahydro-2H-pyrido[1,2-a]pyrazin-2-ylcarbonyl)-N-[4-(trifluoromethyl)phenyl]benzenesulfonamide] | 63
1.7 | O=C(c1cc(S(=O)(=O)Nc2ccccc2F)c(Cl)cc1Cl)N1CCN2CCC[C@@H]2C1 [Example 64, 2,4-dichloro-N-(2-fluorophenyl)-5-[(8aR)-hexahydropyrrolo[1,2-a]pyrazin-2(1H)-ylcarbonyl]benzenesulfonamide] | 57
